Bounds are passed on as bounds.

This assay has as its system HIV-1. Put plainly: Luciferase Replication assay. As to conditions: Human immunodeficiency virus 1, U87/CD4/CCR5, 72 h. It is filed as cell-based. On the procedure: Luciferase Replication Assay:
Plasmids encoding the full length genome of HIV-1 pNL-4-Luc with the gp 120 V-3 loop replaced by the Bgl II fragment of HIV-1 ADA, YU-2 or HxB (ADA-Luc-FL, YU-2-Luc-FL and HxB-Luc-FL) were obtained from Dr. Susan Pontow (Washington University, St. Louis Mo.). Replication-competent luciferase reporter virus stocks were generated by transfection of plasmids into 293T cells using Superfect (Qiagen) or Mirus transfection reagents. Viral stocks were collected 48 hours following transfection and titered for luciferase production on U-87-CCR5 or CXCR4 cells. U87-CD4-CCR5 cells ([…]) were plated in 96-well cell culture plates and incubated overnight. Media was removed and replaced with 50 μl of fresh culture media (DMEM, 10% FCS) and 50 μl of compound diluted in culture medium. Cells were incubated with compound at 37° C. for 1 hour. The resultant supernatant was removed and replaced with 20 μl of media containing compound and infected with an equal volume of diluted or undiluted virus stock at 37° C. for 3-4 hours. The cells were washed once with DMEM, and 200 μl of media containing compound was added. The cultures were incubated for 3 days, the cells lysed in luciferase lysis buffer (Promega, Madison, Wis.) and transferred to Immulon plates (Dynex Technologies, Chantilly Va.). An equal volume of luciferase substrate (Promega, Madison Wis.) was added to lysates and the plates read immediately in a Wallac Luminometer. Fifty and ninety percent inhibitory concentrations were determined using GraphPad PRISM software.

A word on the IC50: it is the concentration at which inhibition is half-maximal. Lower therefore signals inhibition by little substance. In the case of `Cc1ncnc(C)c1C(=O)N1CCC(C)(N2CCC(N(Cc3ccccc3)c3ccc(CC(=O)N4CCCC4)cc3)CC2)CC1`, half-maximal inhibition (IC50) was put at 0.13 nM. Under `Cc1cc(NS(C)(=O)=O)cc(C)c1C(=O)N1CCC(C)(N2CCC(N(Cc3ccccc3)c3ccc(C(C)(C)C(=O)N4CCOCC4)cc3)CC2)CC1` stands 0.16 nM; under `CCNC(=O)Nc1cc(C)c(C(=O)N2CCC(C)(N3CCC(N(Cc4ccccc4)c4ccc(CC(=O)N5CCOCC5)cc4)CC3)CC2)c(C)c1`, 0.19 nM. For `CCN(CC)C(=O)[C@@H](O)c1ccc(N(Cc2ccccc2)C2CCN(C3(C)CCN(C(=O)c4c(C)ncnc4C)CC3)CC2)cc1`, the concentration for half-maximal inhibition (IC50) is 0.16 nM.

`Cc1cc(O)cc(C)c1C(=O)N1CCC(C)(N2CCC(N(Cc3ccccc3)c3ccc(C(C)(C)C(=O)N4CCOCC4)cc3)CC2)CC1` returned an IC50 of less than 0.1 nM. For `Cc1cc(N)cc(C)c1C(=O)N1CCC(C)(N2CCC(N(Cc3ccccc3)c3ccc(C(C)(C)C(=O)N4CCOCC4)cc3)CC2)CC1` the value was 0.13 nM. Take `Cc1ncnc(C)c1C(=O)N1CCC(C)(N2CCC(N(Cc3ccccc3)c3ccc(CC#N)cc3)CC2)CC1`: the IC50 came to 0.14 nM. For `Cc1ncnc(C)c1C(=O)N1CCC(C)(N2CCC(N(Cc3ccccc3)c3ccn(C)c(=O)c3)CC2)CC1` the value was 0.15 nM. Under `Cc1ncnc(C)c1C(=O)N1CCC(C)(N2CCC(N(Cc3ccccc3)c3ccc(CNC(=O)[C@H](O)c4ccccc4)cc3)CC2)CC1` stands 0.19 nM. With `Cc1ncnc(C)c1C(=O)N1CCC(C)(N2CCC(N(Cc3ccccc3)c3ccc(C(C)(C)C(=O)N4CCCCC4)cc3)CC2)CC1`, the midpoint of inhibition, the IC50, lay at 0.18 nM.

Compound `Cc1ncnc(C)c1C(=O)N1CCC(C)(N2CCC(N(Cc3ccccc3)c3ccc(CN4CC[C@H](NS(=O)(=O)C5CC5)C4=O)cc3)CC2)CC1` registered an IC50 of 0.14 nM. Compound `Cc1ncnc(C)c1C(=O)N1CCC(C)(N2CCC(N(Cc3ccccc3)c3ccc(C(C)(C)C(=O)N4CCOCC4)cc3)CC2)CC1` yielded an IC50 of 0.14 nM. In turn, `Cc1ncnc(C)c1C(=O)N1CCC(C)(N2CCC(N(Cc3ccccc3)c3ccc(S(=O)(=O)CCO)cc3)CC2)CC1` showed an IC50 of 0.17 nM.
